Structures can show the parent of a compound that is named as a salt.
Assay: In vitro inhibition of calcium phosphate crystallization in human plasma (spectrophotometric)
Assay type: biochemical
Settings: 0-100 μM, 1.5 mM phosphate, 12.5 mM calcium, pH 7.4, 30 min, rt, read-out: Relative Potency (EC50, inhibition of calcium phosphate crystallization)
Description: The in vitro efficacy of the IP4-4,6 substituted derivatives (e.g., Compounds 1 to 53) of the invention on the inhibition of calcium phosphate crystallization in human plasma samples was evaluated according to a spectrophotometric assay previously described in the art (Ferrer M, et al., Sci Rep 2017; 7:6858, doi:10.1038/s41598-017-07203-x).
A 96-well plate was employed. Plasma was spiked (1 volume of the IP4-4,6 substituted derivatives of the invention per 19 volumes of plasma) with increasing concentrations of the derivatives in the range of 0-100 μM. Plasma was then centrifuged at 10,000 g at rt and subsequently mixed with a mixture of 5 mM hydrogen phosphate and 41.67 mM calcium to attain final concentrations of 1.5 mM phosphate and 12.5 mM calcium, respectively. All reagent solutions were filtered, and pH adjusted to 7.4.
Crystallization of calcium phosphate was monitored spectrophotometrically for 30 min at rt by measuring the increments in absorbance at 550 nm using the Biotek Powerwave XS Microplate spectrophotometer (BioTek Instruments, Inc., Winooski, VT, US). The plate was incubated at rt in an orbital shaker and absorbance measured every 3 min.
Plasma crystallization was assessed based on slope measurement in the linear range between 6 and 24 min from plots of increase in absorbance versus logarithm of time. The efficacy of different myo-inositol phosphates derivatives in preventing in vitro formation of calcium phosphate crystals was assessed in human plasma samples using the slopes obtained between 6- and 24-min. Inhibition of crystallization was measured by comparing the slopes of the control sample (blank plasma) with those of samples containing the inhibitor as shown below: […]

Row | SMILES | EC50
1 | COCc1cn(CCCCOC2C(OP(=O)(O)O)C(OCCCCn3cc(COC)nn3)C(OP(=O)(O)O)C(OP(=O)(O)O)C2OP(=O)(O)O)nn1 (stereo not drawn) [Compound 37, 4,6-O-bis(4-(4-(methoxymethyl)-1H-1,2,3-triazol-1-yl)butyl)-myo-inositol-1,2,3,5-tetrakis(phosphate) octasodium salt] | 5 to 10 µM
2 | COc1ccc(CCCOC2C(OP(=O)(O)O)C(OCCCc3ccc(OC)cc3)C(OP(=O)(O)O)C(OP(=O)(O)O)C2OP(=O)(O)O)cc1 (stereo not drawn) [Compound 43, 4,6-O-bis(3-(4-methoxyphenyl)propyl)-myo-inositol-1,2,3,5-tetrakis(phosphate) octasodium salt] | 5 to 10 µM
3 | O=P(O)(O)OC1C(OCCCc2cccc(C(F)(F)F)c2)C(OP(=O)(O)O)C(OP(=O)(O)O)C(OP(=O)(O)O)C1OCCCc1cccc(C(F)(F)F)c1 (stereo not drawn) [Compound 44, 4,6-O-bis(3-(3-(trifluoromethyl)phenyl)propyl)-myo-inositol-1,2,3,5-tetrakis(phosphate) octasodium salt] | > 10 µM
4 | O=C(NCCCCCOC1C(OP(=O)(O)O)C(OCCCCCNC(=O)c2ccccc2)C(OP(=O)(O)O)C(OP(=O)(O)O)C1OP(=O)(O)O)c1ccccc1 (stereo not drawn) [Compound 48, 4,6-O-bis(5-benzamidopentyl)-myo-inositol-1,2,3,5-tetrakis(phosphate) octasodium salt] | > 10 µM
5 | O=C(NCCCCCOC1C(OP(=O)(O)O)C(OCCCCCNC(=O)c2cccs2)C(OP(=O)(O)O)C(OP(=O)(O)O)C1OP(=O)(O)O)c1cccs1 (stereo not drawn) [Compound 49, 4,6-O-bis(5-(thiophene-2-carboxamido)pentyl)-myo-inositol-1,2,3,5-tetrakis(phosphate) octasodium salt] | 5 to 10 µM
6 | CCCCCOC1C(OP(O)(O)=S)C(OCCCCC)C(OP(O)(O)=S)C(OP(O)(O)=S)C1OP(O)(O)=S (stereo not drawn) [Compound 50, 4,6-O-dipentyl-myo-inositol-1,2,3,5-tetrakis(thiophosphate) octasodium salt] | > 10 µM
7 | COCCCCCOC1C(OP(O)(O)=S)C(OCCCCCOC)C(OP(O)(O)=S)C(OP(O)(O)=S)C1OP(O)(O)=S (stereo not drawn) [Compound 51, 4,6-O-bis(5-Methoxypentyl)-myo-inositol-1,2,3,5-tetrakis(thiophosphate) octasodium salt] | > 10 µM

The remaining lines, values ahead:

Row | EC50 | SMILES
8 | ≤ 5 µM | O=P(O)(O)O[C@@H]1[C@@H](OCCC2CCCC2)[C@H](OP(=O)(O)O)[C@H](OP(=O)(O)O)[C@H](OP(=O)(O)O)[C@H]1OCCC1CCCC1 [Compound 29, 4,6-O-bis(2-cyclopentylethyl)-myo-inositol-1,2,3,5-tetrakis(phosphate) octasodium salt]
9 | ≤ 5 µM | CCCNC(=O)NCCCCCOC1C(OP(=O)(O)O)C(OCCCCCNC(=O)NCCC)C(OP(=O)(O)O)C(OP(=O)(O)O)C1OP(=O)(O)O (stereo not drawn) [Compound 30, 4,6-O-bis(5-(3-propylureido)pentyl)-myo-inositol-1,2,3,5-tetrakis(phosphate) octasodium salt]
10 | ≤ 5 µM | O=C(O)CCn1cc(CO[C@@H]2[C@@H](OP(=O)(O)O)[C@H](OCc3cn(CCC(=O)O)nn3)[C@@H](OP(=O)(O)O)[C@@H](OP(=O)(O)O)[C@H]2OP(=O)(O)O)nn1 [Compound 31, 4,6-O-bis((1-(2-carboxyethyl)-1H-1,2,3-triazol-4-yl)methyl)-myo-inositol-1,2,3,5-tetrakis(phosphate) decasodium salt]
11 | 5 to 10 µM | COCCCCCCn1cc(COC2C(OP(=O)(O)O)C(OCc3cn(CCCCCCOC)nn3)C(OP(=O)(O)O)C(OP(=O)(O)O)C2OP(=O)(O)O)nn1 (stereo not drawn) [Compound 33, 4,6-O-bis((1-(6-methoxyhexyl)-1H-1,2,3-triazol-4-yl)methyl)-myo-inositol-1,2,3,5-tetrakis(phosphate) octasodium salt]
12 | ≤ 5 µM | COCc1cn(CCCCCCOC2C(OP(=O)(O)O)C(OCCCCCCn3cc(C(=O)O)nn3)C(OP(=O)(O)O)C(OP(=O)(O)O)C2OP(=O)(O)O)nn1 (stereo not drawn) [Compound 41, 4-O-(6-(4-carboxy-1H-1,2,3-triazol-1-yl)hexyl)-6-O-(6-(4-(methoxymethyl)-1H-1,2,3-triazol-1-yl)hexyl)-myo-inositol-1,2,3,5-tetrakis(phosphate) nonasodium salt]
13 | ≤ 5 µM | O=C(NCCCOC1C(OP(=O)(O)O)C(OCCCNC(=O)NC2CCCC2)C(OP(=O)(O)O)C(OP(=O)(O)O)C1OP(=O)(O)O)NC1CCCC1 (stereo not drawn) [Compound 47, 4,6-O-bis(3-(3-cyclopentylureido)propyl)-myo-inositol-1,2,3,5-tetrakis(phosphate) octasodium salt]
14 | ≤ 5 µM | O=C(O)CCCOC1C(OP(=O)(O)O)C(OCCCC(=O)O)C(OP(=O)(O)O)C(OP(=O)(O)O)C1OP(=O)(O)O (stereo not drawn) [Compound 52, 4,6-O-bis(3-carboxypropyl)-myo-inositol-1,2,3,5-tetrakis(phosphate) decasodium salt]
15 | ≤ 5 µM | C#CCOC1C(OP(=O)(O)O)C(OCC#C)C(OP(=O)(O)O)C(OP(=O)(O)O)C1OP(=O)(O)O (stereo not drawn) [Compound 53, 4,6-O-Dipropargyl-myo-inositol-1,2,3,5-tetrakis(phosphate) octasodium salt]
